Data from ChEMBL document CHEMBL5120944, “Neocucurbols A-H, Phomactin Diterpene Derivatives from the Marine-Derived Fungus Neocucurbitaria unguis-hominis FS685” (J Nat Prod, 2022).

Legend:
Assay type in all cases: toxicity, cell-based
[1] = Cytotoxicity against human SF-268 cells assessed as reduction in cell viability after 24 hrs by SRB assay
[2] = Cytotoxicity against human MCF7 cells assessed as reduction in cell viability after 24 hrs by SRB assay
[3] = Cytotoxicity against human A549 cells assessed as reduction in cell viability after 24 hrs by SRB assay
[4] = Cytotoxicity against human HepG2 cells assessed as reduction in cell viability after 24 hrs by SRB assay

Measured: IC50 at 24 h

CC1=CC[C@@H]2[C@@]3(C)CC[C@@]4(C)[C@H](C)[C@@H](O)C=C5[C@@]2(O[C@@H]3[C@]54O)[C@H]1O
> 10 µM: [1] | [2] | [3] | [4]

C=C1CC[C@@]2(C)[C@H](C)C[C@@H]3O[C@]3([C@@H]3[C@@H]1CC[C@](C)(O)[C@H]3O)[C@H]2C
> 10 µM: [1] | [2] | [3] | [4]

CC1=CC[C@H]2[C@]3(O[C@H]4[C@]2(C)[C@@H](O)C[C@@]2(C)[C@H](C)CC=C3[C@@]42O)[C@H]1O
> 10 µM: [1] | [2] | [3] | [4]

C[C@@H]1CC=C2[C@H]3[C@H](O)[C@@](C)(O)CC[C@@H]3[C@@](C)(O)CC[C@]1(C)[C@@H]2C
> 10 µM: [1] | [2] | [3] | [4]

C=C1CC[C@@]2(C)[C@H](C)CC=C([C@@H]3[C@@H]1CC[C@](C)(O)[C@H]3O)[C@H]2C
> 10 µM: [1] | [2] | [3] | [4]

CC1=CC[C@@H]2[C@@]3(C)CC[C@]4(C)C5=C([C@@H](O)C[C@H]4C)[C@@]2(O[C@H]53)[C@H]1O
> 10 µM: [1] | [2] | [3] | [4]

CC1=CC[C@@H]2[C@@]3(C)CC[C@@]4(C)[C@H](C)CC(=O)[C@H]5[C@@]2(O[C@@H]3[C@]54O)[C@H]1O
> 10 µM: [1] | [2] | [3] | [4]

C/C1=C/C[C@@]2(C)[C@H](C)CC=C([C@@H]3[C@@H]1CC[C@](C)(O)[C@H]3O)[C@H]2C
> 10 µM: [1] | [2] | [3] | [4]
